{
  "source": "ChEMBL document CHEMBL5465560",
  "about": "“Selectivity Literature for EUbOPEN Chemogenomic Library” (2024)",
  "key": {"[1]": {"target": "T1, Serine/threonine-protein kinase Nek9 (Homo sapiens) (UniProt Q8TD19)", "T1 sequence (whole entry)": "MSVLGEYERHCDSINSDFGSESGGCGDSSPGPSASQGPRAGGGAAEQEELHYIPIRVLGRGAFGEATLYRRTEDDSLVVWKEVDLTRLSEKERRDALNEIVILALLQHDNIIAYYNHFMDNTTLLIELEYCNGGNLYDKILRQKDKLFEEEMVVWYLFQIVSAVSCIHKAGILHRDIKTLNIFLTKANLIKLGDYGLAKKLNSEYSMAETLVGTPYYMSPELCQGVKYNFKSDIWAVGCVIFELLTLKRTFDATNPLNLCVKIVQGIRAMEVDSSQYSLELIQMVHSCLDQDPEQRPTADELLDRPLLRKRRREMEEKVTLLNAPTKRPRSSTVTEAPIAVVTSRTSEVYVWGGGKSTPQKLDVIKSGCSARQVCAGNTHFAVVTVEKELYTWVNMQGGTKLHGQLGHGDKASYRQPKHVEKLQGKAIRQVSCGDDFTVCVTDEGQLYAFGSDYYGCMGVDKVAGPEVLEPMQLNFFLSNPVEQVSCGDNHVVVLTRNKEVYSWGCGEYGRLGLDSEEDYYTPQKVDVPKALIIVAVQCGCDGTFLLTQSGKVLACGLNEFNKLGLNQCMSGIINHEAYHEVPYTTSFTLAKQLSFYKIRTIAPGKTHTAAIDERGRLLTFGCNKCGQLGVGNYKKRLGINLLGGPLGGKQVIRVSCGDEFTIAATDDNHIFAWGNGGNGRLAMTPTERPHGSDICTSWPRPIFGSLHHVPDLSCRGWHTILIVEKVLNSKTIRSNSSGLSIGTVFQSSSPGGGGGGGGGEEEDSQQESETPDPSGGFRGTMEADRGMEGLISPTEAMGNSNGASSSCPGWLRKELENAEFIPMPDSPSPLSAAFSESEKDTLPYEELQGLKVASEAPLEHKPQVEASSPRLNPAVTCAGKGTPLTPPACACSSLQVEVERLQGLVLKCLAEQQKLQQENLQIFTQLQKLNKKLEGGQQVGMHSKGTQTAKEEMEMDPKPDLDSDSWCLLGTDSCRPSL", "experiment": "Selectivity interaction (ActivX KiNativ screen (kinase selectivity in THP-1 cell lysates)) EUB0000639a NEK9", "assay_type": "subcellular", "conditions": "lysate, at 0.01 µM"}, "[2]": {"target": "ALK tyrosine kinase receptor (Homo sapiens, UniProt Q9UM73)", "sequence (Q9UM73 19-1620 limits assumed)": "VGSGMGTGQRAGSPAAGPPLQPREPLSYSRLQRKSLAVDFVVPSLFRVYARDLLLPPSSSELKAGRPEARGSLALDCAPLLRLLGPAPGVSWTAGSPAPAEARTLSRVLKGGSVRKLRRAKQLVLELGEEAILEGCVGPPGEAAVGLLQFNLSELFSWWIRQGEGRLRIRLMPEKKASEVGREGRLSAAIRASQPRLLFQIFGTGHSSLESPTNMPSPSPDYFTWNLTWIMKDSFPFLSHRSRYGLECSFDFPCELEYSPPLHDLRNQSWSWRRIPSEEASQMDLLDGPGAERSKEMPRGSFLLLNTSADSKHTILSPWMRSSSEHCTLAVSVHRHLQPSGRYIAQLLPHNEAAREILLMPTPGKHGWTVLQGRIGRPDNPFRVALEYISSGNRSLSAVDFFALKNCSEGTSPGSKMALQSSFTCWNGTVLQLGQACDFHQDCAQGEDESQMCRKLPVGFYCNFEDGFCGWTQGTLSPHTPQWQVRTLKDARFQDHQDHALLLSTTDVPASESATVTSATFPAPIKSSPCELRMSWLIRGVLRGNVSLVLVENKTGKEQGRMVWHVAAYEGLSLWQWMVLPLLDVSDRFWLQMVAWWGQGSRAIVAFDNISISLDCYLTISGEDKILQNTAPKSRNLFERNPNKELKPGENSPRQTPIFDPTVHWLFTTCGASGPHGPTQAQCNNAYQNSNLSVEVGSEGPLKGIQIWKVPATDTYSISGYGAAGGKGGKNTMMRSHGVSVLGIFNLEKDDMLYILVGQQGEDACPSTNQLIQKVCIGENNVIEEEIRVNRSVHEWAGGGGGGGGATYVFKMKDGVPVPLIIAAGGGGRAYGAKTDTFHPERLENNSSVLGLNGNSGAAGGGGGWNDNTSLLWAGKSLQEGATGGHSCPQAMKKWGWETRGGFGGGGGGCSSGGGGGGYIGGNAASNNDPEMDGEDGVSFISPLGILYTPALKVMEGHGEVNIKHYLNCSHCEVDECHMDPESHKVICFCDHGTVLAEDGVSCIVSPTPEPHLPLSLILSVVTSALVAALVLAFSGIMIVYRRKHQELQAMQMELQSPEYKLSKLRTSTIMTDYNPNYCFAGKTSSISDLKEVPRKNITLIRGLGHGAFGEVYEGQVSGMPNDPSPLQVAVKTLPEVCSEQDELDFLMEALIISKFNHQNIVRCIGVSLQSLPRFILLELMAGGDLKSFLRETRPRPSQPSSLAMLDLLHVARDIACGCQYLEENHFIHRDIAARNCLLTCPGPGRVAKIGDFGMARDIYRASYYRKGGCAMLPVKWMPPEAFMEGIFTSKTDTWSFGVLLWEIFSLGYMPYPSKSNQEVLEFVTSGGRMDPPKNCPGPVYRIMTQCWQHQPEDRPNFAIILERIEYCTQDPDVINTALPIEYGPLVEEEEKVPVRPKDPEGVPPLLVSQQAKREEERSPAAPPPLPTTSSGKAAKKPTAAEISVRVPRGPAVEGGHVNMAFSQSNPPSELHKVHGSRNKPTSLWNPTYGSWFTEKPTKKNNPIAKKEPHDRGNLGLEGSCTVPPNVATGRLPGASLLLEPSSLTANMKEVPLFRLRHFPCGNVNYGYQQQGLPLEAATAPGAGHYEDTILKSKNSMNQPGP", "experiment": "Selectivity interaction (ProQinase) EUB0000171b ALK", "conditions": "at 5 µM"}, "[3]": {"target": "Cyclin-dependent kinase 5 (Homo sapiens, UniProt Q00535)", "sequence (Q00535 whole entry, looked up)": "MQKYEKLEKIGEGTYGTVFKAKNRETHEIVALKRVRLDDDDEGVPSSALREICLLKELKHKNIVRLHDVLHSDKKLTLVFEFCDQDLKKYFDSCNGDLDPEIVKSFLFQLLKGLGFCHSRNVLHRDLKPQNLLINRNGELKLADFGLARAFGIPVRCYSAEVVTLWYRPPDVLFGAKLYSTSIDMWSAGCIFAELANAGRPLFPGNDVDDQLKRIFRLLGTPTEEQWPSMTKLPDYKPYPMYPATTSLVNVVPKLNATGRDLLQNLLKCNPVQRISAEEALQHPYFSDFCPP", "experiment": "Selectivity interaction (KinomeScan (DiscoverX)) EUB0000092b CDK5", "conditions": "at 10 µM"}, "[4]": {"target": "Tyrosine-protein kinase JAK2 (Homo sapiens, UniProt O60674)", "sequence (O60674 whole entry)": "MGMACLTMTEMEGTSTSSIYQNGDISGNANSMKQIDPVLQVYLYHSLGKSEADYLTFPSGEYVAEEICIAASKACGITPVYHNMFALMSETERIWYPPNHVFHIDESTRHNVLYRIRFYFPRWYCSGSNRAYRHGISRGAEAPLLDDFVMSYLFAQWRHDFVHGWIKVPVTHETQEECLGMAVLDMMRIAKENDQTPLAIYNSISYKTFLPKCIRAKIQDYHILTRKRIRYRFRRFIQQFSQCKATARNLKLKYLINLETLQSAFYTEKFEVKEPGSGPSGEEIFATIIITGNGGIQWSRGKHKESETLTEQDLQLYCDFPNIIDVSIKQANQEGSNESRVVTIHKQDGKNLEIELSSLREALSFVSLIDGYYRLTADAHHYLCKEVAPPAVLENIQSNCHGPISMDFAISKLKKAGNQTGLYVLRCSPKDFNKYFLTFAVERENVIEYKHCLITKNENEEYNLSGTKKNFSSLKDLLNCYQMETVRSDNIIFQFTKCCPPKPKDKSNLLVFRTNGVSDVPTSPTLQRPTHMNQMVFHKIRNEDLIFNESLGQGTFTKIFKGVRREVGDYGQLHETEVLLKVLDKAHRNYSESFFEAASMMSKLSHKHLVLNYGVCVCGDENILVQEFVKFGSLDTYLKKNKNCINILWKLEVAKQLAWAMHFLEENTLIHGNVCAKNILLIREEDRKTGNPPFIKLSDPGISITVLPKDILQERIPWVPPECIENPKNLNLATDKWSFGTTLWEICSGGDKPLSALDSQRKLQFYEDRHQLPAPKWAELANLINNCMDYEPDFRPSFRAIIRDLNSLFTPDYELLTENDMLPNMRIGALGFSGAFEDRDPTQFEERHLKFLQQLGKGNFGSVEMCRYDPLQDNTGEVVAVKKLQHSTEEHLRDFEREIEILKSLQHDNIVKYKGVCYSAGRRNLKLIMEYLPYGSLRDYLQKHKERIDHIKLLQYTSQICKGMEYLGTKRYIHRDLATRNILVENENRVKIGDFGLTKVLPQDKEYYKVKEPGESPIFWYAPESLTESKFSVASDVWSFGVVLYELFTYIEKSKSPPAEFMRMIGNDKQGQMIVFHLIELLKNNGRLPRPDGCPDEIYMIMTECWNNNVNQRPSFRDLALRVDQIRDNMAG", "experiment": "Selectivity interaction (KinomeScan (DiscoverX)) EUB0000655a JAK2", "conditions": "at 10 µM"}, "[5]": {"target": "T2, Homeodomain-interacting protein kinase 4 (Homo sapiens) (UniProt Q8NE63)", "T2 sequence (whole entry)": "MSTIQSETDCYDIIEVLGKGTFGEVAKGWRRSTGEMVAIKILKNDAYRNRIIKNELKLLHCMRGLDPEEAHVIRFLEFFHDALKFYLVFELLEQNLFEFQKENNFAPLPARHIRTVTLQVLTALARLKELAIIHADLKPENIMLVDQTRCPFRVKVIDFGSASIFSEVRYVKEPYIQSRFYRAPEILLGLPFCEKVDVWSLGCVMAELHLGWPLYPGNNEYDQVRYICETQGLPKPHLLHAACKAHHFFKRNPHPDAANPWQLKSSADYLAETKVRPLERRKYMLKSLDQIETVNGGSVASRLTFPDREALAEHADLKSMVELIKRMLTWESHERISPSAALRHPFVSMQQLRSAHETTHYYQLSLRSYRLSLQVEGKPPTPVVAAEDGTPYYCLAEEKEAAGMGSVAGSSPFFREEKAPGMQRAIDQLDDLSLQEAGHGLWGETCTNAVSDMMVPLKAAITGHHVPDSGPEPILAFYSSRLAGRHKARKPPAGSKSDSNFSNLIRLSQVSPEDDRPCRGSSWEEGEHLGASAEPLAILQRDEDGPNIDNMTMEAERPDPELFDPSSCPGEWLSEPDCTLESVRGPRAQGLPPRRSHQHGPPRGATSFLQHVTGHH", "experiment": "Selectivity interaction (KinomeScan (DiscoverX)) EUB0001619a HIPK4", "conditions": "at 1 µM"}, "[6]": {"target": "T3, Interleukin-1 receptor-associated kinase 4 (Homo sapiens) (UniProt Q9NWZ3)", "T3 sequence (whole entry)": "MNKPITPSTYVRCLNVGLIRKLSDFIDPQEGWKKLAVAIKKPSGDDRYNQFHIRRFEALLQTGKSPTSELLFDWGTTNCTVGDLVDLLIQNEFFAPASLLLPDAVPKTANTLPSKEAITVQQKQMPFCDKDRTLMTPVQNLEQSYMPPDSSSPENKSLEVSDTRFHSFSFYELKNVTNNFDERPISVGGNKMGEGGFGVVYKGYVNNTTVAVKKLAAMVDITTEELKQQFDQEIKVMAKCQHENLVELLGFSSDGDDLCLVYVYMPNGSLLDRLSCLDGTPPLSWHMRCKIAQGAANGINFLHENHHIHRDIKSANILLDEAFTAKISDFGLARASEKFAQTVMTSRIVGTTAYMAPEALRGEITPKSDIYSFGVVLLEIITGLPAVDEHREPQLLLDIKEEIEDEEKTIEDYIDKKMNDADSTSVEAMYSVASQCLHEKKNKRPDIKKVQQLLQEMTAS", "experiment": "Selectivity interaction (ActivX KiNativ screen (ex vivo kinase selectivity in human PBMCs)) EUB0001619a IRAK4", "assay_type": "cell-based", "conditions": "PBMC, at 1 µM"}, "[7]": {"target": "Ephrin type-A receptor 7 (Homo sapiens) (UniProt Q15375)", "sequence (Q15375 28-998 limits assumed)": "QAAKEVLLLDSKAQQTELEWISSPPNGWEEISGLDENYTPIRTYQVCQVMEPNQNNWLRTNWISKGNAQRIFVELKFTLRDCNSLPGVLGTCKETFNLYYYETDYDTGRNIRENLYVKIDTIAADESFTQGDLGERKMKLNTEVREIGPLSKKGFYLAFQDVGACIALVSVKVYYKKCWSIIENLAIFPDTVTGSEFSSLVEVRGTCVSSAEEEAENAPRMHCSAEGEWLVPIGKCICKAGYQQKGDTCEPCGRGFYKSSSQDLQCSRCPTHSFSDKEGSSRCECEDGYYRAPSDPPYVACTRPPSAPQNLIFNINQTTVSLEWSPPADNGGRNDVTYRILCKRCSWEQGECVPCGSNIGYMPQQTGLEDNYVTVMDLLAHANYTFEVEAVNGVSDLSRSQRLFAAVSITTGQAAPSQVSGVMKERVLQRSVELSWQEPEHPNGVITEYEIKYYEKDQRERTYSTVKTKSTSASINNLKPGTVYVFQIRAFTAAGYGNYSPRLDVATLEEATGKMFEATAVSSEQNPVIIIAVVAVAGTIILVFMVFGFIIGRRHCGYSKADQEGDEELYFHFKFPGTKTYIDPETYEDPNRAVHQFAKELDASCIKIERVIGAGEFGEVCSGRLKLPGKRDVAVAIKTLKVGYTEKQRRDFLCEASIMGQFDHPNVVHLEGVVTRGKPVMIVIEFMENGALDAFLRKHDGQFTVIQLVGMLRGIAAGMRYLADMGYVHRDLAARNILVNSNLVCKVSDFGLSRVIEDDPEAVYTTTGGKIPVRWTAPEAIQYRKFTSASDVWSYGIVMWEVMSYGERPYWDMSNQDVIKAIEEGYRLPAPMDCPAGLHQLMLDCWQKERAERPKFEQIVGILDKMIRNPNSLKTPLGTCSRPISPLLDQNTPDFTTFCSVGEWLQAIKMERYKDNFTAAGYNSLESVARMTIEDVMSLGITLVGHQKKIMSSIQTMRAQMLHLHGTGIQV", "experiment": "Selectivity interaction (Kinase panel (DSF assay)) EUB0001558a EPHA7"}},
  "data": [
    {"smiles": "CC[C@@H]1[C@H](F)C(=O)N[C@@H]1COc1nccc2cc(C(N)=O)c(OC)cc12", "note": "[ZIMLOVISERTIB]", "values": [
      {"measurement": "% of inhibition", "setting": "[1]", "result": 1.1, "unit": "%"}
    ]},
    {"smiles": "C=CC(=O)Nc1cccc(C(=O)Nc2ccc(Nc3cc(-c4[nH]c(SC)nc4C)ccn3)cc2)c1", "values": [
      {"measurement": "% of control", "setting": "[2]", "result": 96, "unit": "%"}
    ]},
    {"smiles": "CCC(=O)N1CCN(c2ccc(-n3c(=O)ccc4cnc5ccc(-c6cnc7ccccc7c6)cc5c43)cc2C(F)(F)F)CC1", "values": [
      {"measurement": "% of control", "setting": "[3]", "result": 100, "unit": "%"}
    ]},
    {"smiles": "CN(C)CCOc1ccc(-c2nc(-c3ccncc3)c(-c3ccc4c(c3)CC/C4=N\\O)[nH]2)cc1", "values": [
      {"measurement": "% of control", "setting": "[4]", "result": 70, "unit": "%"}
    ]},
    {"smiles": "N#Cc1cccc(-c2c[nH]c3ncnc(N4CCOCC4)c23)c1", "values": [
      {"measurement": "% of control", "setting": "[5]", "result": 100, "unit": "%"},
      {"measurement": "% of inhibition", "setting": "[6]", "result": 16, "unit": "%"}
    ]},
    {"smiles": "CC(C)(O)[C@H](F)CN1Cc2cc(NC(=O)c3cnn4cccnc34)c(N3CCOCC3)cc2C1=O", "values": [
      {"measurement": "dTM", "setting": "[7]", "result": -0.2, "unit": "K"}
    ]}
  ]
}
